Assay results reported in paper PMC3237002, “Molecular Conversion of Muscarinic Acetylcholine Receptor M5 to Muscarinic Toxin 7 (MT7)-Binding Protein” (Toxins, 2011).
Substitutions are numbered along the chain they refer to.

Legend:
[1] = biological target: T1, M5-ELY receptor construct (Homo sapiens, UniProt P08912, K175E/P179L/Q184Y); assay: [3H]NMS dissociation rate, M5-ELY; format: binding
T1 construct: expressed in transfected cells; host or cells: Sf9 cells, recombinant baculovirus
T1 sequence (P08912 1-532 K175E/P179L/Q184Y): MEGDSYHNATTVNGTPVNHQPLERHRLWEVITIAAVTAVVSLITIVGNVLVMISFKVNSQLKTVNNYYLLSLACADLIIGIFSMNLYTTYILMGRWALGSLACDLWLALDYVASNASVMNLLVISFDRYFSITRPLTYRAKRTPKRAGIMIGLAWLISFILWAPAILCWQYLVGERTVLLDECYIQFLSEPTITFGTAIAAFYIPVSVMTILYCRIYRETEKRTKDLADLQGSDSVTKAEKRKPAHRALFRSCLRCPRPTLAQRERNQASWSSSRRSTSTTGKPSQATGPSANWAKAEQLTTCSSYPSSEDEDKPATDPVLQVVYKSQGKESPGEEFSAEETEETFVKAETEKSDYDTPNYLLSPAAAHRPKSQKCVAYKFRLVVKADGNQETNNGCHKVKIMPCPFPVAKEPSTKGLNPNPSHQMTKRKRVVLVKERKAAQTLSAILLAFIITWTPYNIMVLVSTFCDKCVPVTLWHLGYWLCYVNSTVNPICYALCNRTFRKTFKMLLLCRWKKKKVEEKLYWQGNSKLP
Description: (§1) The Infected cells from monolayer culture were harvested in phosphate-buffered saline solution, centrifuged 700× g and stored as pellets at −70 °C until use. For binding experiments the cells were resuspended in binding buffer (100 mM NaCl, 20 mM HEPES, 10 mM MgCl2, 1 mM EDTA, pH adjusted to 7.4) and homogenized with an Ultra-Turrax homogenizer. […] Atropine (10 μM) was used to determine nonspecific binding. […] Following this, dissociation was started by addition of 10 μM atropine with or without MT7. Aliquots were removed at regular intervals from 0 to 100 min. In testing the reversibility of MT7 binding, cell homogenates were first incubated with toxin in test tubes for 45 min, thereafter centrifuged 12,000 × g for 30 min and then resuspended in fresh buffer. […] All reactions were terminated by rapid filtration through prewashed GF/B filters followed by five washes with cold buffer containing 180 mM NaCl, 25 mM MgCl2, and 20 mM HEPES, pH 7.4, in a microplate harvester. Radioactivity on filters was determined in a TopCount microplate scintillation counter (PerkinElmer, Waltham, MA).

[2] = biological target: T2, M5-ELYE receptor construct (Homo sapiens, UniProt P08912, K175E/P179L/Q184Y/V474E); assay: [3H]NMS dissociation rate, M5-ELYE; format: binding
T2 construct: expressed in transfected cells; host or cells: Sf9 cells, recombinant baculovirus
T2 sequence (P08912 1-532 K175E/P179L/Q184Y/V474E): T1 sequence (P08912 1-532 K175E/P179L/Q184Y) with V474E
Description: as §1

`C[N+]1(C)[C@@H]2CC(OC(=O)[C@H](CO)c3ccccc3)C[C@H]1[C@@H]1O[C@@H]12` (some centres unmarked) [[^3H]NMS, [^3H]-N-methylscopolamine] was tested, and the “[3H]NMS dissociation rate, control” value [1] was 0.113 min⁻¹ and the “[3H]NMS dissociation rate, control” value [2] was 0.147 min⁻¹.
